Converted amounts (≈) assume the structure as drawn. “And” between values parts separate entries of the source, which are not always exact repeats. Equal entries are not always repeated. One block for each molecule: values may come before it.
Columns and labels:
Brugia pahangi [1] = assay: Antifilarial effect in beagle dogs infected with Brugia pahangi; format: in vivo
Source text: The infective larvae of B. pahangi were produced and collected as described by McCall [J. Georgia Entomol. Soc. 16:283-293, (1981)]. The dogs were given 100 L3 of B. pahangi by subcutaneous injection (SC) into the dorsum of each hind paw or 200 L3 in one hind paw (i.e., a total inoculum of 200 L3 per dog).
The dogs were randomly allocated to treatment groups containing 4 dogs. The dogs were divided by sex and ranked by declining baseline microfilarial counts (average count based on the 5 bleedings made before the day of treatment). Those dogs which were amicrofilaremic or had very few microfilariae were excluded from the trial. Of the remaining dogs, those with the highest baseline microfilaremias were assigned to seven-dog replicates. The sex of the dogs within three of the replicates was the same, while the fourth replicate contained dogs of both sexes. The dogs of a given sex with the highest levels of microfilaremia were placed in the same replicate. The next set of dogs of that sex with the next highest levels of microfilaremia was assigned to the next replicate, and so on until all of the replicates were filled. The dogs within each complete replicate were assigned to test groups using a table of random numbers [Ostle and Mensing, Statistics in Research, Third Edition, Iowa State University Press, Ames, Iowa, pp. 560-563, (1975)]. The test groups were likewise assigned to either control or treatment groups using the table of random numbers.
The first day of treatment, day 0, was approximately 144 days after infection. Drugs were administered orally as a 10% suspension in HEC-Tween 80 or in soft gelatin capsules. Drugs were administered intramuscularly or subcutaneously as a 10% suspension in peanut oil or in HEC-Tween 80. Groups of four dogs served in sham-treated controls in each experiment. All of the treatments were given by IM injection in the dorsal lumbar muscles.
(§1) All dogs were observed frequently during each day of treatment and daily throughout the remainder of the study for any signs of reactions. In addition, the hair was shaved at the injection sites to facilitate the observation of possible tissue irritation resulting from treatment.
Blood was collected from each dog on days 51, 43, 27, 19, and 5 before treatment to determine baseline microfilaremias and allocate the dogs to treatment groups. Blood was then collected from all dogs on the day before treatment on day -1, on days 7, 10, 14, 21, 28, 35, 42, 49, and 56 days after treatment. All bleedings were done at approximately the same time of day (11:00-12:00 E.S.T.). Two 20-μl blood films were prepared from each sample and stained with giemsa. Microfilarial counts were made from the 2 blood films.
The dogs were euthanized for necropsy either two or six months after the first day of treatment. Just prior to euthanasia, the dogs were given a subcutaneous injection (SC) of a two percent solution of Evans blue into the dorsum of both hind paws in order to help delineate the lymphatic vessels. This was followed at least 30 minutes later with a lethal dose of Fatal-Plus® (Vortech Pharmaceuticals, Dearborn, Mich.). A limited necropsy was performed on each dog with examination of the afferent and efferent lymphatics of both hindlimbs and the popliteal, inguinal, internal and external iliac, and lumbar lymph nodes. Any live or dead worms seen were removed. These vessels and lymph nodes were removed, teased, and soaked overnight in normal saline to allow any worms to migrate out of the tissues. The condition of the worms, their sex and number, and the location from which they were recovered were noted.
Effectiveness against the adult parasites was determined as follows: [formula] Effectiveness against microfilariae for a given day after treatment was determined as follows: [formula]
The adult B. pahangi counts and the microfilarial counts were compared using a one way analysis of variance (ANOVA). […]

B. pahangi and A. viteae = assay: Antifilarial activity in jirds, dual infection, summary in words; format: in vivo; conditions: both oral and parenteral routes
Source text: (§2) Dual infections of the filarial worms Brugia pahangi and Acanthocheilonema viteae in jirds are used routinely for antifilarial screening [McCall, J. W., McTier, T. L., and Rowan, S. J., "In vivo models for evaluating potential antifilarial agents", Onchocerciasis/Filariasis (Proceedings of a Symposium sponsored by the World Health Organization), Kalamazoo, Mich., Apr. 8-10, 23-24 (1986)].
For this dual infection screen, male Mongolian jirds weighing 50-60 g are infected SC with 10 (5 male and 5 female) adult A. viteae, transplanted under sodium pentobarbital anesthesia (48 mg/kg) from donor hamsters infected SC 8 weeks earlier. Two weeks later, 20 (10 male and 10 female) adult B. pahangi, taken from donor jirds infected IP 8 weeks earlier, are transplanted into the peritoneal cavity of each jird under sodium pentobarbital anesthesia. After an additional week, when the jirds have acceptable levels of microfilaremia, they are randomly allocated to treatment groups of 3 animals each and a nontreated group of 4-6 animals. Microfilaremia is determined on days 0 (just prior to the first dose), 4 and 56 post-treatment. […] Live worms are identified as to species, noted as to sex, and counted. The number of dead and/or encapsulated worms is also recorded. […]

Aqueous solubility = conditions: water
Brugia pahangi [2] = assay: Antifilarial dual infection screen in jirds: adult B. pahangi burden; format: in vivo, in Mongolian jirds; conditions: day 56
Source text: as §2
(§3) For this dual infection screen, male Mongolian jirds weighing 50-60 g are infected SC with 10 (5 male and 5 female) adult A. viteae, transplanted under sodium pentobarbital anesthesia (48 mg/kg) from donor hamsters infected SC 8 weeks earlier. Two weeks later, 20 (10 male and 10 female) adult B. pahangi, taken from donor jirds infected IP 8 weeks earlier, are transplanted into the peritoneal cavity of each jird under sodium pentobarbital anesthesia. After an additional week, when the jirds have acceptable levels of microfilaremia, they are randomly allocated to treatment groups of 3 animals each and a nontreated group of 4-6 animals. Microfilaremia is determined on days 0 (just prior to the first dose), 4 and 56 post-treatment. Unless indicated otherwise, compounds are suspended in hydroxyethylcellulose (0.5%) - Tween 80 (0.1%) and administered SC at 100 mg/kg/day for 5 consecutive days. All jirds are killed on day 56 post-treatment to determine the effects of drugs on adults of A. viteae and B. pahangi. Live worms are identified as to species, noted as to sex, and counted. The number of dead and/or encapsulated worms is also recorded. A reduction of ≥80% in microfilaremia or ≥50% in adult worm burden (either species) compared with pre-treatment microfilaremia or non-treated control worm burden, respectively, is considered to be significant. For secondary testing with this dual infection screen, groups of 7 animals each are used. For oral dosing, drugs are dissolved or suspended in hydroxyethylcellulose - Tween 80 and administered by gavage.

Acanthocheilonema viteae = assay: Antifilarial dual infection screen in jirds: adult A. viteae burden and microfilaremia; format: in vivo, in Mongolian jirds; conditions: for % Macrofilarial reduction, A. viteae: day 56
Source text: as §2, §3

[3] = Local muscle irritation at injection site in beagle dogs; format: in vivo; conditions: IM, 12.5-50 mg/kg/day for 2 to 3 days
Source text: as §1

adult worms = conditions: background art; cited from earlier work
microfilariae = conditions: background art; cited from earlier work
[4] = IM, 6.25 mg/kg/day × 3, peanut oil
[5] = IM, 12.5 mg/kg/day × 3, peanut oil
[6] = IM, 25 mg/kg/day × 3, peanut oil
[7] = IM, 50 mg/kg/day × 1, peanut oil
[8] = IM, 50 mg/kg/day × 2, peanut oil
[9] = IM, 50 mg/kg/day × 3, peanut oil
[10] = PO, 200 mg/kg/day bid × 3, HEC-Tween 80
[11] = SC, 50 mg/kg/day × 3, HEC-Tween 80

- solubility (Aqueous solubility): 180 µg/mL (≈ 573 µM)
SMILES: COC(=O)Nc1nc2cc(C(N)c3ccc(F)cc3)ccc2[nH]1 (racemic) [Example 1, Methyl (±)-[5-[Amino(4-Fluorophenyl)Methyl]-1H-Benzimidazol-2-yl]Carbamate]
- Dogs cured/Treated (Brugia pahangi [1]; [4]): 0/4
- Percent reduction Macrofilariae (Brugia pahangi [1]; [4]): 38%
- Percent reduction Microfilariae (Brugia pahangi [1]; [4]): 50%
- Dogs cured/Treated (Brugia pahangi [1]; [5]): 1/4
- Percent reduction Macrofilariae (Brugia pahangi [1]; [5]): 91%
- Percent reduction Microfilariae (Brugia pahangi [1]; [5]): 76%
- Dogs cured/Treated (Brugia pahangi [1]; [6]): 4/4
- Percent reduction Macrofilariae (Brugia pahangi [1]; [6]): 100%
- Percent reduction Microfilariae (Brugia pahangi [1]; [6]): 72%
- Dogs cured/Treated (Brugia pahangi [1]; [7]): 0/4
- Percent reduction Macrofilariae (Brugia pahangi [1]; [7]): 85%
- Percent reduction Microfilariae (Brugia pahangi [1]; [7]): 55%
- Dogs cured/Treated (Brugia pahangi [1]; [8]): 2/4
- Percent reduction Macrofilariae (Brugia pahangi [1]; [8]): 92%
- Percent reduction Microfilariae (Brugia pahangi [1]; [8]): 59%
- Dogs cured/Treated (Brugia pahangi [1]; [9]): 4/4
- Percent reduction Macrofilariae (Brugia pahangi [1]; [9]): 100%
- Percent reduction Microfilariae (Brugia pahangi [1]; IM, 50 mg/kg/day × 3, peanut oil, 50 mg/kg/day): 100% and 99%
- cure of B. pahangi infections (Brugia pahangi [1]; IM, 12.5-50 mg/kg/day for 2 to 3 days): cured dogs of B. pahangi infections
- Percent reduction Macrofilariae (Brugia pahangi [1]; [10]): 93%
- Percent reduction Microfilariae (Brugia pahangi [1]; [10]): 97%
- Dogs cured/Treated (Brugia pahangi [1]; PO, 200 mg/kg/day bid × 3, HEC-Tween 80, necropsied 6 months): 1/3
- Dogs cured/Treated (Brugia pahangi [1]; [11]): 1/4
- Percent reduction Macrofilariae (Brugia pahangi [1]; [11]): 76%
- Percent reduction Microfilariae (Brugia pahangi [1]; [11]): 78%
- cure of B. pahangi infections (Brugia pahangi [1]; administered orally): also curative when administered orally
- antifilarial activity in jirds (B. pahangi and A. viteae): outstanding antifilarial activity
- % Macrofilarial reduction, B. pahangi (Brugia pahangi [2]; 1.56 mg/kg/day × 5 days, SC): 16%
- % Macrofilarial reduction, B. pahangi (Brugia pahangi [2]; 6.25 mg/kg/day × 5 days, SC): 92%
- % Macrofilarial reduction, B. pahangi (Brugia pahangi [2]; 12.5 mg/kg/day × 5 days, SC): 100%
- % Macrofilarial reduction, B. pahangi (Brugia pahangi [2]; 25 mg/kg/day × 5 days, SC): 100%
- % Microfilarial reduction, A. viteae, Day 4 (Acanthocheilonema viteae; 25 mg/kg/day × 5 days, SC): 0%
- % Macrofilarial reduction, A. viteae (Acanthocheilonema viteae; 25 mg/kg/day × 5 days, SC): 88%
- local muscle irritation [3]: no local muscle irritation

SMILES: COC(=O)Nc1nc2cc(C(N)c3ccccc3)ccc2[nH]1 (racemic) [Example 3, Methyl (±)-[5-[Amino (Phenyl)Methyl]-1H-Benzimidazol-2-yl]Carbamate]
- % Macrofilarial reduction, B. pahangi (Brugia pahangi [2]; 1.56 mg/kg/day × 5 days, SC): 23%
- % Macrofilarial reduction, B. pahangi (Brugia pahangi [2]; 6.25 mg/kg/day × 5 days, SC): 0%
- % Macrofilarial reduction, B. pahangi (Brugia pahangi [2]; 25 mg/kg/day × 5 days, SC): 75%
- % Macrofilarial reduction, B. pahangi (Brugia pahangi [2]; 100 mg/kg/day × 5 days, SC): 100%
- % Macrofilarial reduction, B. pahangi (Brugia pahangi [2]; 100 mg/kg/day × 5 days, oral): 52%
- % Microfilarial reduction, A. viteae, Day 4 (Acanthocheilonema viteae; 100 mg/kg/day × 5 days, oral): 83%
- % Microfilarial reduction, A. viteae, Day 56 (Acanthocheilonema viteae; 100 mg/kg/day × 5 days, oral): 83%
- % Macrofilarial reduction, A. viteae (Acanthocheilonema viteae; 100 mg/kg/day × 5 days, oral): 80%

SMILES: COC(=O)Nc1nc2cc(C(N)c3ccccc3)ccc2[nH]1.Cl.Cl (racemic) [Example 4, Methyl (±)-[5-[Amino (Phenyl)Methyl]-1H-Benzimidazol-2-yl]Carbamate Dihydrochloride Salt]
- % Macrofilarial reduction, B. pahangi (Brugia pahangi [2]; 3.13 mg/kg/day × 5 days, SC): 15%
- % Macrofilarial reduction, B. pahangi (Brugia pahangi [2]; 6.25 mg/kg/day × 5 days, SC): 14%
- % Macrofilarial reduction, B. pahangi (Brugia pahangi [2]; 12.5 mg/kg/day × 5 days, SC): 18%
- % Macrofilarial reduction, B. pahangi (Brugia pahangi [2]; 100 mg/kg/day × 5 days, oral): 30%
- % Macrofilarial reduction, B. pahangi (Brugia pahangi [2]; 200 mg/kg/day × 5 days, oral): 100%
- % Microfilarial reduction, A. viteae, Day 4 (Acanthocheilonema viteae; 3.13 mg/kg/day × 5 days, SC): 75%
- % Microfilarial reduction, A. viteae, Day 56 (Acanthocheilonema viteae; 3.13 mg/kg/day × 5 days, SC): 50%
- % Macrofilarial reduction, A. viteae (Acanthocheilonema viteae; 3.13 mg/kg/day × 5 days, SC): 9%
- % Microfilarial reduction, A. viteae, Day 4 (Acanthocheilonema viteae; 6.25 mg/kg/day × 5 days, SC): 67%
- % Microfilarial reduction, A. viteae, Day 56 (Acanthocheilonema viteae; 6.25 mg/kg/day × 5 days, SC): 67%
- % Macrofilarial reduction, A. viteae (Acanthocheilonema viteae; 6.25 mg/kg/day × 5 days, SC): 27%
- % Microfilarial reduction, A. viteae, Day 4 (Acanthocheilonema viteae; 12.5 mg/kg/day × 5 days, SC): 88%
- % Microfilarial reduction, A. viteae, Day 56 (Acanthocheilonema viteae; 12.5 mg/kg/day × 5 days, SC): 50%
- % Macrofilarial reduction, A. viteae (Acanthocheilonema viteae; 12.5 mg/kg/day × 5 days, SC): 31%
- % Microfilarial reduction, A. viteae, Day 4 (Acanthocheilonema viteae; 100 mg/kg/day × 5 days, oral): 91%
- % Microfilarial reduction, A. viteae, Day 56 (Acanthocheilonema viteae; 100 mg/kg/day × 5 days, oral): 91%
- % Macrofilarial reduction, A. viteae (Acanthocheilonema viteae; 100 mg/kg/day × 5 days, oral): 81%
- % Microfilarial reduction, A. viteae, Day 4 (Acanthocheilonema viteae; 200 mg/kg/day × 5 days, oral): 67%
- % Microfilarial reduction, A. viteae, Day 56 (Acanthocheilonema viteae; 200 mg/kg/day × 5 days, oral): 100%
- % Macrofilarial reduction, A. viteae (Acanthocheilonema viteae; 200 mg/kg/day × 5 days, oral): 100%

SMILES: CCN(CC)C(=O)N1CCN(C)CC1 [Diethylcarbamazine]
- activity against adult worms (macrofilaricidal) (adult worms): kill adults of lymphatic filariae in some, but far from all patients
- activity against microfilariae (microfilariae): has the ability to destroy microfilariae
